Assay [1] addresses T1, Rat Striatal Nicotinic Receptors ([^3H]MLA binding sites; α7) (Rattus norvegicus, UniProt Q05941).
T1 construct: Whole brain, excluding cortex and cerebellum, was homogenized in 20 vol of ice-cold buffer; from tissue; host or cells: rat brain membranes (whole brain excluding cortex and cerebellum)
The assay is described as follows: Inhibition of [^3H]MLA (methyllycaconitine) binding. The procedure, abridged:
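Rat brain membranes were washed by repeated centrifugation at 25,000 g, with a 10 min incubation at 37° C. in between. Samples of 250 μl, containing 100-140 μg of membrane protein, 3 nM [^3H]-methyllycaconitine and test analog in 50 mM Tris assay buffer, were incubated in 96-well plates for 60 min at room temperature. Nonspecific binding was defined with 10 μM S-nicotine. Bound radioactivity was collected on polyethylenimine-soaked GF/B filter plates and counted on a TopCount.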

Assay [2] concerns nicotinic receptors mediating S-nicotine-evoked [^3H]DA release in rat striatal slices. The experiment in a line: Inhibition of S-nicotine-evoked [^3H]dopamine release from superfused rat striatal slices. Format: cell-based. Particulars: for inhibition at 0.1 µM: 1 h, read-out: [^3H]DA release, % inhibition of S-nicotine-evoked release. The method, boiled down:
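Superfused rat striatal slices preloaded with 0.1 μM [3H]DA, in Krebs buffer with nomifensine and pargyline (10 μM each), 34 °C. Analogs (100 nM) given 60 min before 10 μM S-nicotine; tritium overflow by scintillation, inhibition expressed as percent of nicotine-evoked overflow without analog; full concentration-effect curves where […] given.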

In assay [3] the target is T2, Rat Striatal Nicotinic Receptors ([^3H]NIC binding sites; α4β2) (Rattus norvegicus, UniProt P09483+P12390).
T2 construct: Whole brain, excluding cortex and cerebellum, was homogenized in 20 vol of ice-cold buffer; from tissue; host or cells: rat brain membranes (whole brain excluding cortex and cerebellum)
T2 sequence (P09483 31-630): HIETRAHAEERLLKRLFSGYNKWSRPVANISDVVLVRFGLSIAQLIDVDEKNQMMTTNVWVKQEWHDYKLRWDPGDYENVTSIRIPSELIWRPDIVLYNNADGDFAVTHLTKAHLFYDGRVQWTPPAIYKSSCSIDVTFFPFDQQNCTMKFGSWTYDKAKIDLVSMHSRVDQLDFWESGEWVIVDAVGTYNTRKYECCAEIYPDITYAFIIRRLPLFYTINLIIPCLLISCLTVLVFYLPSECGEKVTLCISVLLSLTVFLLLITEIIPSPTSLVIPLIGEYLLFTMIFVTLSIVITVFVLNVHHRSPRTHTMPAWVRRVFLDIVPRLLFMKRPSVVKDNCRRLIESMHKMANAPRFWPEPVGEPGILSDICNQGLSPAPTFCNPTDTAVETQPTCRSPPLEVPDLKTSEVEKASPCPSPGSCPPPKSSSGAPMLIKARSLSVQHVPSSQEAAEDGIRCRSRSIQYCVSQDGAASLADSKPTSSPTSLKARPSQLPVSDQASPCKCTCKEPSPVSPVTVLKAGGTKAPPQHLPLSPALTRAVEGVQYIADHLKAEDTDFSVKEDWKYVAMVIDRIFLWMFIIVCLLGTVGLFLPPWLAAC
T2 sequence (P12390 25-500): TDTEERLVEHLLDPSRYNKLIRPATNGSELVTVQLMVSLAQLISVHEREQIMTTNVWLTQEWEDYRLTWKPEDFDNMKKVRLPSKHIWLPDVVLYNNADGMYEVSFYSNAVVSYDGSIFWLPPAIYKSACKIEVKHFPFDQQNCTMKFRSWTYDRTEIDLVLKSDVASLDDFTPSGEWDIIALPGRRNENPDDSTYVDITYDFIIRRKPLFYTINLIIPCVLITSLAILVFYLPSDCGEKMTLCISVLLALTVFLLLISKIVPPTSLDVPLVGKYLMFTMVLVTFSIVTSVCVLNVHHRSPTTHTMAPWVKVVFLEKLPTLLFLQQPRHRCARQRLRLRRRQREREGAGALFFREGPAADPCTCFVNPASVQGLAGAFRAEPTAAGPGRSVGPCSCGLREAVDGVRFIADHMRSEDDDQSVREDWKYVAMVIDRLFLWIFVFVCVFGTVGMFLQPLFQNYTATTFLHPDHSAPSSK
The experiment in a line: Inhibition of [^3H]NIC binding.

Where [4] appears, read: full concentration effect, [^3H]MLA, nonspecific S-nicotine, rat brain membranes, read-out: [^3H]MLA binding, Ki.
[5] abbreviates: 100 nM analog superfused 60 min before NIC 10 μM, rat striatal slices.
[6] abbreviates: full concentration effect, 3 nM [^3H]NIC, nonspecific 10 μM cytisine, rat brain membranes, read-out: [^3H]NIC binding, Ki.

Where two headings read alike, the source gives them in different places.

T1 sequence (Q05941 23-502): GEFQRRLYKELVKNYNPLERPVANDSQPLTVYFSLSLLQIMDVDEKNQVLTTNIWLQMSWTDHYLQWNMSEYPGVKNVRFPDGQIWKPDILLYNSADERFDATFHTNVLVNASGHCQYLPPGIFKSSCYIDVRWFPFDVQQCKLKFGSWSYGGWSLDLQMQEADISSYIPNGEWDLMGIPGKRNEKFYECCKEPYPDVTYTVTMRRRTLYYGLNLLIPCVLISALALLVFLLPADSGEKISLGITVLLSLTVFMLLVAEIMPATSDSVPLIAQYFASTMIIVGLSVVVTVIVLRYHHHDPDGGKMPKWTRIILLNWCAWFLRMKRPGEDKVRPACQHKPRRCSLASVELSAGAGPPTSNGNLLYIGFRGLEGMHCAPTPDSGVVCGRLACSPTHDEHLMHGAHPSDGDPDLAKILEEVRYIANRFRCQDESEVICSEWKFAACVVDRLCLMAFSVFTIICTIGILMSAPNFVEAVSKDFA

Consider `C(#Cc1ccc(C#CCC[n+]2ccc3c(c2)CCCC3)cc1)CC[n+]1ccc2c(c1)CCCC2` [Example 99, N,N′-[(1,4-phenylene)-bis-(4-butynyl)]-bis-(5,6,7,8-tetrahydroisoquiolinium)dibromide], for which the results for the Ki in assay [1] (setting [4]) and in assay [3] (setting [6]) were 0.87 µM and 8.04 µM, respectively. Besides, the inhibition (usually how much of the control response was suppressed) at 0.1 µM in assay [2] (setting [5]) worked out at 14%.

As to `Cc1cc[n+](CCCCc2ccc(CCCC[n+]3ccc(C)cc3)cc2)cc1` [Example 13, N,N′-[1,4-phenylenedi-(4-butanyl)]-bis-(4-methylpyridinium)dibromide], the inhibition constant (Ki) in assay [1] (setting [4]) and in assay [3] (setting [6]) was more than 100 µM in each case. Further, in assay [2] (setting [5]), the inhibition at 0.1 µM is 32%.

As for `Cc1ccc[n+](CCCCc2ccc(CCCC[n+]3cccc(C)c3)cc2)c1` [Example 12, N,N′-[1,4-phenylenedi-(4-butanyl)]-bis-(3-methylpyridinium)dibromide], the Ki in assay [1] (setting [4]) and in assay [3] (setting [6]) was more than 100 µM throughout. Further, the inhibition at 0.1 µM in assay [2] (setting [5]) was 44%.

`Cc1cc[n+](CCCCC#CC#CCCCC[n+]2ccc(C)cc2)cc1` [Example 93, N,N′-(5,7-dodecadiyn-1,12-diyl)-bis-(4-methylpyridinium)dichloride]: the Ki (commonly a dissociation constant, usually derived from enzyme kinetics or from competition with a known ligand) worked out at 5.11 µM in assay [1] (setting [4]) and 8.93 µM in assay [3] (setting [6]). The inhibition at 0.1 µM in assay [2] (setting [5]) turned out to be 19%.

On to `C(C#CCCCC[n+]1ccc2c(c1)CCCC2)#CCCCC[n+]1ccc2c(c1)CCCC2` [Example 96, N,N′-(5,7-dodecadiyn-1,12-diyl)-bis-(5,6,7,8-tetrahydroisoquinolinium)dichloride], for which the Ki in assay [1] (setting [4]) worked out at 5.36 µM; in assay [3] (setting [6]), 11.3 µM.

For `Cc1cc[n+](CCCCC#CC#CCCCC[n+]2ccc(C)c(C)c2)cc1C` [Example 94, N,N′-(5,7-dodecadiyn-1,12-diyl)-bis-(3,4-dimethylpyridinium)dichloride], the inhibitory constant (Ki) turned out to be 24.1 µM in assay [1] (setting [4]) and 8.6 µM in assay [3] (setting [6]). The inhibition at 0.1 µM in assay [2] (setting [5]) amounted to 21%.

With `CN1CCC[C@@H]1c1ccc[n+](CCCCc2ccc(CCCC[n+]3cccc([C@H]4CCCN4C)c3)cc2)c1` [Example 10, N,N′-[1,4-phenylenedi-(4-butanyl)]-bis-[3-(2′-S-1-methyl-pyrrolidin-2-yl)-pyridinium]dibromide], the values for the Ki in assay [1] (setting [4]) and in assay [3] (setting [6]) were more than 100 µM and 0.63 µM, respectively. Moreover, in assay [2] (setting [5]), the inhibition at 0.1 µM was found to be 17%.

Consider `Cc1ccc[n+](CCCCC#CC#CCCCC[n+]2cccc(C)c2)c1` [Example 92, N,N′-(5,7-dodecadiyn-1,12-diyl)-bis-(3-methylpyridinium)dichloride], for which the Ki was more than 100 µM in assay [1] and 6.36 µM in assay [3]. The inhibition at 0.1 µM in assay [2] (setting [5]) came out at 18%.

Turning to `C(/C=C\CCCC[n+]1cccc2c1CCCC2)=C/CCCC[n+]1cccc2c1CCCC2` [Example 5, cis-cis-N,N′-(dodeca-5,7-diene-1,12-diyl)-bis-(5,6,7,8-tetrahydro-quinolinium)dibromide], the inhibition constant (Ki) in assay [1] (setting [4]) is 7.64 µM; in assay [3] (setting [6]), 3.63 µM.

For the molecule `Cc1cccc[n+]1CCCCC#CC#CCCCC[n+]1ccccc1C` [Example 91, N,N′-(5,7-dodecadiyn-1,12-diyl)-bis-(2-methylpyridinium)dichloride], the Ki in assay [1] (setting [4]) came out at 23.9 µM; in assay [3] (setting [6]), 4.4 µM. Also, the inhibition at 0.1 µM in assay [2] (setting [5]) was 6%.

Consider `Cc1cccc[n+]1CCCCc1ccc(CCCC[n+]2ccccc2C)cc1` [Example 11, N,N′-[1,4-phenylenedi-(4-butanyl)]-bis-(2-methylpyridinium)dibromide], for which the results for the Ki in assay [1] (setting [4]) and in assay [3] (setting [6]) were more than 100 µM and 5.94 µM, respectively. In addition, the inhibition at 0.1 µM in assay [2] (setting [5]) came to 37%.

As for `c1cc(CCCC[n+]2ccc3c(c2)CCCC3)ccc1CCCC[n+]1ccc2c(c1)CCCC2` [Example 16, N,N′-[1,4-phenylenedi-(4-butanyl)]-bis-(5,6,7,8-tetrahydroisoquinolinium)dibromide], the values for the Ki in assay [1] (setting [4]) and in assay [3] (setting [6]) were 15.3 µM and more than 100 µM, respectively.

For `Cc1cc[n+](CCC#Cc2ccc(C#CCC[n+]3ccc(C)cc3)cc2)cc1` [Example 98, N,N′-[(1,4-phenylene)-bis-(4-butynyl)]-bis-(4-methyl-pyridinium)dibromide], the inhibitory constant (Ki) in assay [1] (setting [4]) was more than 100 µM; in assay [3] (setting [6]) it was 8.5 µM. The inhibition at 0.1 µM in assay [2] (setting [5]) was determined as 29%.

Consider `C(/C=C\CCCC[n+]1ccc2c(c1)CCCC2)=C/CCCC[n+]1ccc2c(c1)CCCC2` [Example 6, cis-cis-N,N′-(dodeca-5,7-diene-1,12-diyl)-bis-(5,6,7,8-tetrahydro-isoquinolinium)dibromide], for which the inhibitory constant (Ki) in assay [1] (setting [4]) was 3 µM; in assay [3] (setting [6]), 5.84 µM.

Turning to `CN1CCC[C@H]1c1ccc[n+](CCCC/C=C\C=C/CCCC[n+]2cccc([C@@H]3CCCN3C)c2)c1` [Example 1, cis-cis-N,N′-(dodeca-5,7-diene-1,12-diyl)-bis-[3-(2′-S-1-methyl-pyrrolidin-2-yl)-pyridinium]dibromide], the results for the inhibition constant Ki in assay [1] (setting [4]) and in assay [3] (setting [6]) were more than 100 µM and 1.09 µM, respectively. In addition, in assay [2] (Rattus norvegicus), the inhibition at 0.1 µM amounted to 11%.

With `Cc1cccc[n+]1CCCC/C=C\C=C/CCCC[n+]1ccccc1C` [Example 2, cis-cis-N,N′-(dodeca-5,7-diene-1,12-diyl)-bis-(2-methyl-pyridinium)dibromide], the inhibition at 0.1 µM in assay [1] (read-out: [^3H]MLA binding, % inhibition) came to 4.2%; in assay [2] (Rattus norvegicus) it was 0%; in assay [3] (1 h, read-out: [^3H]NIC binding, % inhibition), 11%.

Consider `Cc1cc[n+](CCCC/C=C\C=C/CCCC[n+]2ccc(C)cc2)cc1` [Example 4, cis-cis-N,N′-(dodeca-5,7-diene-1,12-diyl)-bis-(4-methyl-pyridinium)dibromide], for which the inhibition constant (Ki) in assay [1] and in assay [3] (setting [6]) was more than 100 µM in each case. In addition, in assay [2] (setting [5]), the inhibition at 0.1 µM was found to be 58%.

Consider `Cc1ccc[n+](CCC#Cc2ccc(C#CCC[n+]3cccc(C)c3)cc2)c1` [Example 97, N,N′-[(1,4-phenylene)-bis-(4-butynyl)]-bis-(3-methyl-pyridinium)dibromide], for which the Ki in assay [1] (setting [4]) was more than 100 µM; in assay [3] (setting [6]) it was 2.75 ± 0.4 µM. Moreover, in assay [2] (setting [5]), the inhibition at 0.1 µM amounted to 21%.

With `Cc1cc(C)c[n+](CCCCC#CC#CCCCC[n+]2cc(C)cc(C)c2)c1` [Example 95, N,N′-(5,7-dodecadiyn-1,12-diyl)-bis-(3,5-dimethylpyridinium)dichloride], the results for the Ki in assay [1] and in assay [3] were 25.6 µM and more than 100 µM, respectively. For the same molecule, the half-inhibitory concentration (IC50) (in general, the concentration needed to halve the response being measured) in assay [2] (NIC 10 μM, rat striatal slices) was more than 1 µM.

For the molecule `Cc1ccc[n+](CCCC/C=C\C=C/CCCC[n+]2cccc(C)c2)c1` [Example 3, cis-cis-N,N′-(dodeca-5,7-diene-1,12-diyl)-bis-(3-methyl-pyridinium)dibromide], the Ki in assay [1] (setting [4]) and in assay [3] (setting [6]) was more than 100 µM in each case. Moreover, in assay [2] (setting [5]), the inhibition at 0.1 µM stood at 31%.

For the origin of these results see patent publication US8178678B2, “Bis-quaternary ammonium salts and methods for modulating neuronal nicotinic acetylcholine receptors” (University of Kentucky Research Foundation, priority 2006, dated 2012).
